Source: patent US11648248B1 (King Abdulaziz University, priority 2022, dated 2023)
In brackets after ≈: the same amount, converted by molar mass. Where two headings read alike, the source gives them in different places.

How the values were obtained:
Assay in all cases: MIC broth microdilution, initial screening
Type in all cases: cell-based
[1] = tested on: Clostridium difficile (ATCC-BAA1870); conditions: anaerobic, 48 hours; for MIC: Clostridioides difficile, ATCCBAA1870, 48 h, read-out: minimum inhibitory concentration (MIC) C. difficile (ATCC-BAA1870)
Description: (§1) The minimum inhibitory concentrations (MICs) of the tested compounds and control drugs (linezolid, vancomycin, gentamicin (antibiotics) and fluconazole and 5-fluorocytosine (5-FC) (antifungal drugs)) were determined using the broth microdilution method, according to guidelines outlined by the Clinical and Laboratory Standards Institute (CLSI, Clinical and Laboratory Standards Institute, Methods for antimicrobial susceptibility testing of anaerobic bacteria; approved standard, M11-A8. 8th ed., 2012; CLSI, Clinical and Laboratory Standards Institute. M27-A3 Reference Method for Broth Dilution Antifungal Susceptibility Testing of Yeasts; Approved Standard—Third Edition, Wayne, Pa., 2008) against clinically-relevant bacterial (methicillin-resistant Staphylococcus aureus (MRSA), Escherichia coli, and C. difficile strains) and fungal (Candida albicans) strains. S. aureus and E. coli were grown aerobically overnight on tryptone soy agar plates at 37° C. C. difficile was grown anaerobically on brain heart infusion supplemented agar at 37° C. for 48 hours. C. albicans was grown aerobically overnight on yeast peptone dextrose (YPD) agar plate at 35° C. Afterwards, a bacterial solution equivalent to 0.5 McFarland standard was prepared and diluted in cation-adjusted Mueller-Hinton broth (CAMHB) (for S. aureus and E. coli) to achieve a bacterial concentration of about 5×10^5 CFU/mL. C. difficile was diluted in brain heart infusion supplemented broth, supplemented with yeast extract, hemin and vitamin K to achieve a bacterial concentration of about 5×10^5 CFU/mL. C. albicans was diluted in Roswell Park Memorial Institute (RPMI 1640) medium with glutamine and without bicarbonate (GIBCO by Life Technologies, Green Island, N.Y., USA) which was buffered to pH 7.0 with 0.165 M of [3-(N-morpholino) propanesulfonic acid] (MOPS) (DOT Scientific Inc., Burton, Mich., USA) to achieve a fungal concentration of about 1.5×10^3 CFU/mL. Compounds and control drugs were added in the first row of the 96-well plates and serially diluted with the corresponding media containing bacteria. Plates were then incubated aerobically at 37° C. for 18-20 hours (for S. aureus and E. coli). C. difficile was incubated anaerobically at 37° C. for 48 hours. C. albicans was incubated aerobically at 37° C. for 24 hours.
(§2) The minimum inhibitory concentrations (MICs) of the tested compounds and control drugs; linezolid, vancomycin, gentamicin (antibiotics) and fluconazole and 5-fluorocytosine (5-FC) (antifungal drugs) were determined using the broth microdilution method, according to guidelines outlined by the Clinical and Laboratory Standards Institute (CLSI)^1, 2, 3 against clinically-relevant bacterial (methicillin-resistant Staphylococcus aureus (MRSA), Escherichia coli and Clostridium difficile strains) and fungal (Candida albicans) strain. S. aureus and E. coli were grown aerobically overnight on tryptone soy agar plates at 37° C. C. difficile was grown anaerobically on brain heart infusion supplemented agar at 37° C. for 48 hours. C. albicans was grown aerobically overnight on yeast peptone dextrose (YPD) agar plate at 35° C. Afterwards, a bacterial solution equivalent to 0.5 McFarland standard was prepared and diluted in cation-adjusted Mueller-Hinton broth (CAMHB) (for S. aureus and E. coli) to achieve a bacterial concentration of about 5×10^5 CFU/mL. C. difficile was diluted in brain heart infusion supplemented broth, supplemented with yeast extract, hemin and vitamin K to achieve a bacterial concentration of about 5×10^5 CFU/mL. C. albicans was diluted in Roswell Park Memorial Institute (RPMI 1640) medium with glutamine and without bicarbonate (GIBCO by Life Technologies, Green Island, N.Y., USA) which was buffered to pH 7.0 with 0.165 M of [3-(N-morpholino) propanesulfonic acid]

[2] = tested on: Escherichia coli JW55031 (TolC mutant); conditions: for MIC: Escherichia coli, read-out: minimum inhibitory concentration (MIC) E. coli (TolC mutant), E. coli JW55031, 18-20 hours
Description: as §1, §2

[3] = tested on: C. albicans (ATCC 64124); conditions: Candida albicans, read-out: minimum inhibitory concentration (MIC) C. albicans (ATCC 64124)
Description: as §1, §2

[4] = tested on: Escherichia coli BW25113 (wild-type); conditions: for MIC: Escherichia coli, E. coli BW25113, 18-20 hours, read-out: minimum inhibitory concentration (MIC) E. coli (Wild-type)
Description: as §1, §2

[5] = tested on: Methicillin-resistant Staphylococcus aureus NRS384 (MRSA USA300)
Description: as §1, §2

[6] = read-out: minimum inhibitory concentration (MIC) S. aureus (MRSA USA300), MRSA NRS384 (USA300), broth microdilution, 18-20 hours

Compound	minimum inhibitory concentration (MIC) C. difficile (ATCC-BAA1870) [1]	MIC [2]	MIC ([3]; ATCC64124, 24 h)	MIC [4]	MIC ([5]; MRSA|NRS384|USA300, read-out: minimum inhibitory concentration (MIC) S. aureus (MRSA USA300), MRSA NRS384 (USA300), broth microdilution, 18-20 hours)	MIC ([3]; ATCC64124, RPMI 1640, 24 hours)	MIC [1]	MIC [5, 6]	minimum inhibitory concentration (MIC) E. coli (TolC mutant) ([2]; E. coli JW55031, 18-20 hours)	minimum inhibitory concentration (MIC) E. coli (Wild-type) ([4]; 18-20 hours)
Cc1cc(Cl)ccc1NC(=O)Nc1ccc(-c2ccc(=O)[nH]n2)cc1	64 µg/mL (≈ 180 µM)	64 µg/mL (≈ 180 µM)	> 128 µg/mL	> 128 µg/mL	> 128 µg/mL	–	–	–	–	–
Nc1nc(=O)[nH]cc1F [5-Fluorocytosine, 5-fluorocytosine, reference compound]	–	–	–	–	–	0.25 µg/mL (≈ 1.94 µM)	–	–	–	–
OC(Cn1cncn1)(Cn1cncn1)c1ccc(F)cc1F [Fluconazole, reference compound]	–	–	–	–	–	> 128 µg/mL	–	–	–	–
Cc1cccc(NC(=O)Nc2ccc(Oc3ccc(=O)[nH]n3)cc2)c1 [MY32, 1-(4-((6-oxo-1,6-dihydropyridazin-3-yl)oxy)phenyl)-3-(m-tolyl)urea]	–	> 128 µg/mL	> 128 µg/mL	> 128 µg/mL	–	–	> 128 µg/mL	> 128 µg/mL	–	–
COc1ccc(NC(=O)Nc2cccc(-c3ccc(=O)[nH]n3)c2)cc1 [MY33, 1-(4-methoxyphenyl)-3-(3-(6-oxo-1,6-dihydropyridazin-3-yl)phenyl)urea]	–	> 128 µg/mL	> 128 µg/mL	> 128 µg/mL	–	–	> 128 µg/mL	> 128 µg/mL	–	–
O=C(Nc1cccc(Nc2ccc(=O)[nH]n2)c1)Nc1ccc(Cl)c(Cl)c1 [MY49, 1-(3,4-dichlorophenyl)-3-(3-((6-oxo-1,6-dihydropyridazin-3-yl)amino)phenyl)urea]	–	> 128 µg/mL	> 128 µg/mL	> 128 µg/mL	–	–	> 128 µg/mL	> 128 µg/mL	–	–
O=C(Nc1cccc(Nc2ccc(=O)[nH]n2)c1)Nc1ccc(Cl)c(C(F)(F)F)c1 [MY50, 1-(4-chloro-3-(trifluoromethyl)phenyl)-3-(3-((6-oxo-1,6-dihydropyridazin-3-yl)amino)phenyl)urea]	–	128 µg/mL (≈ 302 µM)	> 128 µg/mL	> 128 µg/mL	–	–	> 128 µg/mL	> 128 µg/mL	–	–
Gentamicin [reference compound]	–	–	–	–	–	–	–	–	0.25 µg/mL	0.5 µg/mL
